In general, IC50 refers to the midpoint of a concentration-inhibition curve. Higher therefore signals lower potency. The term CC50 denotes the concentration that lowers cell viability or growth by half.

Data on three molecules can be found in patent US11040952B2, “Phthalazinone compound, method for preparation thereof, pharmaceutical composition thereof, and use thereof” (SHANGHAI INSTITUTE OF MATERIA MEDICA, CHINESE ACADEMY OF …, priority 2017, dated 2021).

One data set deals with HBV. Kind of data set: HBV DNA content in the supernatant of cell culture (real-time PCR). Type of data set: cell-based, hepatitis B virus (HBV). The note with it: inhibition of HBV DNA replication, HepG2.2.15 supernatant, 8 days. The essentials:
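HepG2.2.15 cells stably carrying full-length HBV exposed to compounds for 8 days in DMEM with 10% FBS, medium renewed on day 4. Supernatant virion HBV DNA extracted and quantified by real-time PCR against a 1e^7-1e^4 IU/ml standard curve; IC50 calculated.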

Another data set deals with HepG2.2.15 cells. As to the kind of experiment: MTT assay for cytotoxicity. Type of data set: cell-based, Human. The note with it: 8 days, half (50%) lethal concentration. Put shortly: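 HBV-transfected HepG2.2.15 cells were cultured with compound for 8 days at 37 °C in DMEM/10% FBS, with medium changed on day 4. Viability was read by MTT (4 h, then 12 h lysis, OD570) against control wells. CC50 is the concentration cutting viability by 50%.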
For orientation: Tetrazolium dyes change colour on reduction, which living cells bring about.

Structures are written as SMILES.

In the data set on HBV, `CN(C)CCNc1ccc(-c2nn(Cc3ccc(C#N)cc3)c(=O)c3ccccc23)c(F)n1` [IV-37] returned an IC50 of 2.18 µM. Further, half-maximal cytotoxicity in the data set on HepG2.2.15 cells (CC50) was put at 86.5 µM.

On to `COc1ccc(-c2nn(Cc3ccc(Cl)cc3)c(=O)c3ccccc23)c(F)n1` [Compound I-20], for which the IC50 in the data set on HBV stood at 1.3 µM. The molecule further came in with a CC50 with HepG2.2.15 cells of 33.3 µM.

Consider `COc1ccc(-c2nn(Cc3ccc(Cl)cc3)c(=O)c3ccccc23)c(F)n1` [Compound I-4], for which, in the data set with HBV, it took 3.1 µM to reach half-maximal inhibition (IC50). In the data set with HepG2.2.15 cells, this molecule displayed a CC50 of over 100 µM.
